This is an account of results in paper PMC9995496, “A screen for MeCP2-TBL1 interaction inhibitors using a luminescence-based assay” (Scientific Reports, 2023).

SMILES strings stand for the structures. Counter-ions that a name gives are not always drawn.

The subject of the first test is PRKACA-PRKAR2A interaction (SmBiT-PRKACA / LgBiT-PRKAR2A), protein kinase A. Also noted: NanoLuc complementation counter-screen in cell extract, PRKACA with PRKAR2A, loss of luminescence, detects NanoLuc interference. The following applies: 0.5 h, 20 µM; inhibitor.
Take `O=C(Oc1ccc([N+](=O)[O-])cc1)N1CCC(C(O)(c2ccc3c(c2)OCO3)c2ccc3c(c2)OCO3)CC1` [UM0142396:01, JZL184]: the “Inh (PKA)” value was 16.72%.

Still in this test, the particulars now being: counter-screen for NanoLuc interference, 0.5 h, 20 µM, inhibitor, Inh (PKA).
On to `NCCc1c[nH]cn1` [UM0142362:01, Histamine Phosphate], for which the “Inh (PKA)” value was -0.9808%.
On the same count and under the same terms, then `O=C(O)Cc1ccccc1Nc1c(Cl)cccc1Cl` [UM0142393:01, Diclofenac Diethylamine], with 11.28%; and `CCC(CC)[C@H](NC(C)=O)[C@@H]1[C@H](O)[C@@H](C(=O)O)C[C@H]1NC(=N)N` [UM0142420:01, Peramivir Trihydrate], with 0.7131%; and `COc1ccc2[nH]c([S@@+]([O-])Cc3ncc(C)c(OC)c3C)nc2c1` [UM0142444:01, Esomeprazole Magnesium], with 3.498%.

Staying with this test, now noted: counter-screen for NanoLuc interference; 0.5 h, 20 µM; inhibitor.
Consider `CCOC(CN1CCN(CC(C)C(=O)c2ccccc2)CC1)c1ccccc1` (centres unmarked) [UM0142356:01, Eprazinone 2HCl], for which the “Inh (PKA)” value is recorded as 5.222%.
For the molecule `COC(=O)Nc1nc2cc(C(=O)c3ccc(F)cc3)ccc2[nH]1` [UM0142358:01, Flubendazole], the “Inh (PKA)” value stood at 6.18%.
Take `CCC(=O)O[C@]1(C(=O)CCl)[C@@H](C)C[C@H]2[C@@H]3C[C@H](F)C4=CC(=O)C=C[C@]4(C)[C@@]3(F)[C@@H](O)C[C@@]21C` [UM0142361:01, Halobetasol Propionate]: the “Inh (PKA)” value is 7.218%.
As for `CCCCCN(C)CCC(O)(P(=O)(O)O)P(=O)(O)O` [UM0142363:01, Ibandronate sodium], the “Inh (PKA)” value stood at 1.018%.
`CC(C)CC(N)=O` [UM0142364:01, Isovaleramide]: the “Inh (PKA)” value is recorded as -0.438%.
In the case of `CN(C)c1ccc(O)c2c1C[C@H]1C[C@H]3[C@H](N(C)C)C(O)=C(C(N)=O)C(=O)[C@@]3(O)C(O)=C1C2=O` [UM0142369:01, Minocycline HCl], the “Inh (PKA)” value is recorded as 5.155%.
On the same count and under the same terms, the same measure for `NC[C@@H]1O[C@H](O[C@H]2[C@@H](O)[C@H](O[C@@H]3[C@@H](O)[C@H](N)C[C@H](N)[C@H]3O[C@H]3O[C@H](CN)[C@@H](O)[C@H](O)[C@H]3N)O[C@@H]2CO)[C@H](N)[C@@H](O)[C@@H]1O` [UM0142371:01, Neomycin sulfate]: 1.127%; for `CCN[C@@H]1C[C@H](N)[C@@H](O[C@H]2OC(CN)=CC[C@H]2N)[C@H](O)[C@H]1O[C@H]1OC[C@](C)(O)[C@H](NC)[C@H]1O` [UM0142372:01, Netilmicin Sulfate]: -0.6216%.
As to `CC[C@@H]1/C=C(\C)C[C@H](C)C[C@H](OC)[C@H]2O[C@@](O)(C(=O)C(=O)N3CCCC[C@H]3C(=O)O[C@H](/C(C)=C/[C@@H]3CC[C@H](Cl)[C@H](OC)C3)[C@H](C)[C@@H](O)CC1=O)[C@H](C)C[C@@H]2OC` [UM0142376:01, Pimecrolimus], the “Inh (PKA)” value is 0.5953%.
In the case of `Nc1ccc2cc3ccc(N)cc3nc2c1` [UM0142377:01, Proflavine Hemisulfate], the “Inh (PKA)” value is on record as 0.7107%.
Turning to `NC[C@H]1O[C@H](O[C@H]2[C@H](O[C@@H]3O[C@H](CO)[C@@H](O)[C@H]3O)[C@@H](O)[C@H](N)C[C@@H]2N)[C@H](N)[C@@H](O)[C@@H]1O` [UM0142378:01, Ribostamycin Sulfate], the “Inh (PKA)” value worked out at 35.19%.
Consider `Cc1ccc(C(=O)C(C)CN2CCCCC2)cc1` (centres unmarked) [UM0142383:01, Tolperisone HCl], for which the “Inh (PKA)” value is on record as -1.099%.
Turning to `NC[C@H]1CC[C@H](C(=O)O)CC1` [UM0142384:01, Tranexamic Acid], the “Inh (PKA)” value was 2.588%.
`CCC[S+]([O-])c1ccc2[nH]c(NC(=O)OC)nc2c1` (centres unmarked) [UM0142387:01, Albendazole Oxide]: the “Inh (PKA)” value worked out at 2.774%.
For `C=CCNC(N)=S` [UM0142388:01, Allylthiourea], the “Inh (PKA)” value worked out at 3.519%.
Regarding `Oc1ccc(OC2CCCCO2)cc1` (centres unmarked) [UM0142392:01, Deoxyarbutin], the “Inh (PKA)” value stood at 1.229%.
Same read-out and setting: the same measure for `C[C@]12CC[C@@H]3c4ccc(OC(=O)c5ccccc5)cc4CC[C@H]3[C@@H]1CC[C@@H]2O` [UM0142395:01, Estradiol Benzoate]: 19.47%.
For `CN(C)C(=N)NC(=N)N` [UM0142397:01, Metformin HCl], the “Inh (PKA)” value was found to be 1.975%.
Regarding `O=C(NC(Cc1cc(=O)[nH]c2ccccc12)C(=O)O)c1ccc(Cl)cc1` (centres unmarked) [UM0142401:01, Rebamipide], the “Inh (PKA)” value came out at 2.079%.
As to `C=C[C@]1(C)C[C@@H](OC(=O)CS[C@@H]2C[C@H]3CC[C@@H](C2)N3C)[C@]2(C)[C@H](C)CC[C@]3(CCC(=O)[C@H]32)[C@@H](C)[C@@H]1O` [UM0142402:01, Retapamulin], the “Inh (PKA)” value is given as 4.258%.
Consider `CCCN1CCCC[C@H]1C(=O)Nc1c(C)cccc1C` [UM0142404:01, Ropivacaine HCl], for which the “Inh (PKA)” value is recorded as 0.01917%.
In the case of `Cc1ccc(S(=O)(=O)Cc2nc(-c3ccc(C(=O)NCc4cccnc4)cc3)oc2C)cc1` [UM0142406:01, STF-118804], the “Inh (PKA)” value worked out at 1.65%.
With `CN[C@@H]1[C@H](O[C@H]2[C@H](O[C@H]3[C@H](O)[C@@H](O)[C@H](N=C(N)N)[C@@H](O)[C@@H]3N=C(N)N)O[C@@H](C)[C@]2(O)C=O)O[C@@H](CO)[C@H](O)[C@H]1O` [UM0142407:01, Streptomycin sulfate], the “Inh (PKA)” value worked out at 1.585%.
In the case of `CC1(C)[C@H](C(=O)O)N2C(=O)C[C@H]2S1(=O)=O` [UM0142408:01, Sulbactam sodium], the “Inh (PKA)” value worked out at 1.508%.
For the molecule `CCN=C1N[C@@H]2[C@@H](O)[C@H](O)[C@@H](CO)O[C@@H]2S1` [UM0142409:01, Thiamet G], the “Inh (PKA)” value was -0.5508%.
In the case of `CN(C)C(=O)COC(=O)Cc1ccc(OC(=O)c2ccc(NC(=N)N)cc2)cc1` [UM0142412:01, Camostat Mesilate], the “Inh (PKA)” value amounted to 0.7864%.
Regarding `C=C[C@H]1CN2CC[C@H]1C[C@H]2[C@H](O)c1ccnc2ccc(OC)cc12` [UM0142415:01, Quinine HCl Dihydrate], the “Inh (PKA)” value is 1.874%.
Consider `C=C1CC[C@H](O)C/C1=C/C=C1\CCC[C@]2(C)[C@@H]([C@H](C)CCCC(C)(C)O)CC[C@@H]12` [UM0142419:01, Calcifediol], for which the “Inh (PKA)” value turned out to be 12.98%.
On the same count and under the same terms, the same measure for `Cc1cccc(Nc2nc(-c3ccncc3)cs2)c1` [UM0142421:01, STF-62247]: 25.96%.
The same measure, in the same setting: then `C=C1/C(=C\C=C2/CCC[C@]3(C)[C@@H]([C@H](C)CCCC(C)C)CC[C@@H]23)C[C@@H](O)C[C@@H]1O` [UM0142422:01, Alfacalcidol], with 10.76%; and `Cc1cc(OCc2nnc(SC3CCCC3)n2-c2cccnc2)ccc1-c1ccc(S(C)(=O)=O)cc1` [UM0142426:01, NMS-873], with 10.54%; and `Nc1ncnc2c1c(-c1cnc3[nH]ccc3c1)nn2C1CCCC1` [UM0142428:01, PP121], with 28.88%.
As for `COCCOc1ccc2c(c1)ncn2-c1ccc2cccc(N3CCC(N)CC3)c2n1` [UM0142429:01, CP-673451], the “Inh (PKA)” value was determined as 21.57%.
Consider `CNc1nc(-c2ccc3c(N)n[nH]c3c2)cc(N2C[C@@H](C(=O)NC3CCCCC3)CC[C@H]2C)n1` [UM0142430:01, GSK2334470], for which the “Inh (PKA)” value is listed as 2.681%.
Consider `Cc1cccc(CC(=O)N2CCc3c2ccc(-c2cn(C)c4ncnc(N)c24)c3F)n1` [UM0142431:01, GSK2656157], for which the “Inh (PKA)” value was -0.3115%.
Same read-out and setting: the same measure for `O=C1NC(=O)/C(=C/c2ccc3nccc(-c4ccncc4)c3c2)S1` [UM0142432:01, GSK1059615]: 27.08%.
Take `Cc1c(CN2CCN(C(=O)[C@H](C)O)CC2)sc2c(N3CCOCC3)nc(-c3cnc(N)nc3)nc12` [UM0142435:01, GDC-0980 (RG7422)]: the “Inh (PKA)” value is listed as 0.4199%.
Regarding `Cc1c(Cn2c(C)nc3c(C(=O)O)cc(N4CCOCC4)cc32)cccc1C(F)(F)F` [UM0142436:01, GSK2636771], the “Inh (PKA)” value is given as -0.2162%.
As for `Cn1cc(C2=C(c3cn(CCCSC(=N)N)c4ccccc34)C(=O)NC2=O)c2ccccc21` [UM0142439:01, Ro 31-8220 Mesylate], the “Inh (PKA)” value was determined as 76.02%.
On the same count and under the same terms, then `CCOC(=O)[C@H](CCc1ccccc1)N[C@H]1CS[C@H](c2cccs2)CN(CC(=O)O)C1=O` [UM0142447:01, Temocapril HCl], with 1.04%; and `COCCCOc1cc(C[C@@H](C[C@H](N)[C@@H](O)C[C@H](C(=O)NCC(C)(C)C(N)=O)C(C)C)C(C)C)ccc1OC` [UM0142448:01, Aliskiren Hemifumarate], with 6.646%.
The same measure, in the same setting: then `CCn1c2ccccc2c2cc(Nc3ccnc(NCCCN4CCOCC4)n3)ccc21` [UM0142449:01, EHop-016], with 37.03%.
For the molecule `Cc1cn([C@H]2C[C@H](N=[N+]=[N-])[C@@H](CO)O2)c(=O)[nH]c1=O` [UM0142451:01, Zidovudine], the “Inh (PKA)” value is on record as 1.207%.
As for `CC(C)(C)C(=O)OCOP(=O)(COCCn1cnc2c(N)ncnc21)OCOC(=O)C(C)(C)C` [UM0142452:01, Adefovir Dipivoxil], the “Inh (PKA)” value was -0.7793%.
As for `Cc1cc(C#N)cc(C)c1Oc1nc(Nc2ccc(C#N)cc2)nc(N)c1Br` [UM0142453:01, Etravirine (TMC125)], the “Inh (PKA)” value was determined as 89.04%.
In the case of `Cc1cn([C@H]2C=C[C@@H](CO)O2)c(=O)[nH]c1=O` [UM0142454:01, Stavudine (d4T)], the “Inh (PKA)” value is listed as 0.5167%.
With `CC(C)CCN1c2nc(Nc3cc(F)c(O)c(F)c3)ncc2N(C)C(=O)C1C` (centres unmarked) [UM0142455:01, BI-D1870], the “Inh (PKA)” value came to 64.82%.
With `CCc1cncnc1N1CCN(Cc2nc3ccc(C(F)(F)F)cc3[nH]2)CC1` [UM0142456:01, PF-4708671], the “Inh (PKA)” value is 34.33%.
For the molecule `CNS(=O)(=O)CCc1ccc2[nH]cc(C3CCN(C)CC3)c2c1` [UM0142462:01, Naratriptan], the “Inh (PKA)” value is -0.5355%.
With `Nc1c(Br)cc(Br)cc1CN[C@H]1CC[C@H](O)CC1` [UM0142466:01, Ambroxol HCl], the “Inh (PKA)” value is listed as 4.132%.
As for `O=C1NC(=O)C(c2ccccc2)(c2ccccc2)N1` [UM0142467:01, Phenytoin], the “Inh (PKA)” value was 11.36%.
